ChEMBL document CHEMBL1201862, “PubChem BioAssay data set” (2004)
Each block holds one compound with its values, some of them ahead of it. Calls of active or inactive are those of the source.

Key:
[1] = target: T1, Corticotropin-releasing factor receptor 2/Corticotropin-releasing factor-binding protein (Homo sapiens, UniProt P24387+Q13324); assay: activators of CRF receptor 2 with binding protein – uHTS hits, confirmation (AID 602473); assay type: functional; details: read-out: EC50_Mean
T1 sequence (Q13324 whole entry): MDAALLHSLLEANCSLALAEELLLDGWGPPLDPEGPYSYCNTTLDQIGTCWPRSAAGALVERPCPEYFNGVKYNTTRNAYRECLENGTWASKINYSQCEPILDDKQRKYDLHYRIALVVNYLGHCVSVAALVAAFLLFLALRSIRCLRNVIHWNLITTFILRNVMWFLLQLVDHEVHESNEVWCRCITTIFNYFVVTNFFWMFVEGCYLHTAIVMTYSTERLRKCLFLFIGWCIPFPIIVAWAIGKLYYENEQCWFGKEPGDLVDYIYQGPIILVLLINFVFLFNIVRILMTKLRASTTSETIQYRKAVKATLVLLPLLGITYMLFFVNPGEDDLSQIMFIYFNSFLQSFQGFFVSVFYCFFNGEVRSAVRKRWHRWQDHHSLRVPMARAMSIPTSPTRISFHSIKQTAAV
T1 sequence (P24387 whole entry): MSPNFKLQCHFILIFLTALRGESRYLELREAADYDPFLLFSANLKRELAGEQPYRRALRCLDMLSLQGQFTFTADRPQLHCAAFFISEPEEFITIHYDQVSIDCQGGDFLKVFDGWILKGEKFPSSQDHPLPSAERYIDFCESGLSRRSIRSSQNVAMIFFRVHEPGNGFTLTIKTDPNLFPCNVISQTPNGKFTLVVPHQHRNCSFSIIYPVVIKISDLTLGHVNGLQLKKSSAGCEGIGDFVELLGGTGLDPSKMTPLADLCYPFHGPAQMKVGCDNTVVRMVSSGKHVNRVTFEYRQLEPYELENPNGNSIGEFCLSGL

[2] = blockers of CRF-binding protein–CRF-R2 complex – cell-based, uHTS hits, 384-well, dose response (AID 651639); assay type: functional, Homo sapiens; details: read-out: IC50_Mean
[3] = target: T1, Corticotropin-releasing factor receptor 2/Corticotropin-releasing factor-binding protein; assay: Dose Response confirmation of uHTS hits for small molecule antagonists of the CRF-binding protein and CRF-R2 receptor complex.; assay type: functional; details: read-out: IC50_Mean
BJ [4] = assay: BJ-TERT fibroblast viability loss – cell-based, RAS-independent, luminescence, dose response (AID 1933); assay type: functional; details: Homo sapiens
[5] = DRD fibroblast viability loss – cell-based, non-viral oncogenic, luminescence, dose response (AID 1934); assay type: functional; details: Homo sapiens
BJ [6] = assay: growth inhibition of engineered Ras-driven BJ cells – cell-based, alamar blue fluorescence, cherrypicked samples, dose response (AID 2631); assay type: functional; details: Homo sapiens;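 further: confirmatory dose-response assay in RAS-dependent BJ fibroblasts engineered with TERT, LT and ST, with cytotoxicity read by fluorescence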
[7] = Luminescence Cell-Based Dose Retest to Confirm Inhibitors of Cancer Stem Cells. [Related pubchem assays (depositor defined):AID2717, AID2721]; assay type: functional; details: Homo sapiens
BJ [8] = assay: cells; assay type: functional, cell-based; details: Homo sapiens
BJ [9] = assay: BJ-TERT-LT-ST fibroblast viability loss – cell-based, RAS-independent, luminescence, dose response (AID 1935); assay type: functional; details: Homo sapiens;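 further: BJ fibroblasts immortalized with TERT plus LT and ST oncogenes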
Melanocortin receptor 4 = Melanocortin receptor 4 (Homo sapiens, UniProt P32245); assay type: functional, cell-based;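 further: Cell-based assay with luminescence read-out, confirmatory dose-response testing for agonist activity of biased ligands at MC4R; human U2OS cells with tagged receptor and beta-arrestin; potency of agonists that increase receptor coupling to beta-arrestin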
Sequence of Melanocortin receptor 4 (P32245 whole entry): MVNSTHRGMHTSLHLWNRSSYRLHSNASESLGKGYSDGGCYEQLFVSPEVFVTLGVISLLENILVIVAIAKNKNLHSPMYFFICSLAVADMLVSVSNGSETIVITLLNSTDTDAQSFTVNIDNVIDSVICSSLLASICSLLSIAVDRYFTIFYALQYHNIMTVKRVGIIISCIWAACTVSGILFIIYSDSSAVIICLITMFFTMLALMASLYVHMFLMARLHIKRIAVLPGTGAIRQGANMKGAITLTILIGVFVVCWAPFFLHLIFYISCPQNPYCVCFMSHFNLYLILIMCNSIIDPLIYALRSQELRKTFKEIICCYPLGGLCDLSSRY

Protein Wnt-3a = Protein Wnt-3a (Mus musculus, UniProt P27467); assay: antagonism of Wnt3a pathway luciferase reporter – Wnt-LIGHT cells, luminescence, selectivity assay for Gli-SUFU antagonist project, dose response (AID 651570); assay type: functional; details: read-out: IC50_Mean;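 further: Wnt-LIGHT reporter cells stimulated with conditioned medium from Wnt3a-producing cells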
Sequence of Protein Wnt-3a (P27467 whole entry): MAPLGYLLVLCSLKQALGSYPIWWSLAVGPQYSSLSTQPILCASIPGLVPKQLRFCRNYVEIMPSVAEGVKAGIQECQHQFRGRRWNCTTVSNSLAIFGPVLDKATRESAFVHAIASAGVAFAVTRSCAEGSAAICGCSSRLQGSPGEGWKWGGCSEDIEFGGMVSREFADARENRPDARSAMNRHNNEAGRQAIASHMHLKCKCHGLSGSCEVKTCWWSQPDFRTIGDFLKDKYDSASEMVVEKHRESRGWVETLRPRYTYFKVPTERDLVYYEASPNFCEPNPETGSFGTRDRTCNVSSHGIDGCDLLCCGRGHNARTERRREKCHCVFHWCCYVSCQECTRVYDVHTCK

INS1 = assay: INS-1E survival protection against cytokine death – cell-based, luminescence, retest, dose response (AID 449756); assay type: functional; details: Rattus norvegicus;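 further: cell death triggered by IL-1 beta plus TNF-alpha plus IFN-gamma mixture; protective hits raise ATP signal compared with cytokine alone wells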

Structure (SMILES): Cc1c(CC(Cl)(Cl)Cl)c2c(n1O)CC(C)(C)CC2=O
EC50 [1]: 15.9 µM (active) | IC50 [2]: > 20 µM (inactive) | IC50 [3]: 2.98 µM (active)

Structure (SMILES): CCc1ccc(CCC(=O)Nc2ncc(Cc3ccccc3Cl)s2)o1
EC50 (BJ [4]): 2.76 µM (active) | EC50 [5]: 3.72 µM (active) | EC50 (BJ [6]): 1.83 µM (active) | AC50 [7]: 0.184 µM (active) | EC50 (BJ [8]): 14 µM (active) | EC50 (BJ [9]): 2.83 µM (active) | EC50 (Melanocortin receptor 4): > 89.2 µM (inactive)

Structure (SMILES): CCOc1ccc(OCc2ccc(C(=O)NN=Cc3ccc[nH]3)cc2)cc1
AC50 (INS1): 0.372 µM (active) | IC50 (Protein Wnt-3a): 5.48 µM (active)

The remaining lines, values ahead:

IC50 (Protein Wnt-3a): 8.95 µM (active)
Structure (SMILES): CCCCCn1c(=N)n(CC(O)COc2ccccc2OC)c2ccccc21 (stereo unspecified)

EC50 [1]: > 53 µM (inactive) | IC50 [2]: > 20 µM (inactive) | IC50 [3]: 2.7 µM (active)
Structure (SMILES): O=C(CC(c1ccccc1)c1ccccc1O)NCc1ccccc1Cl (stereo unspecified)
